# In US9243247B2, “Composition for promoting apoptosis or inhibiting cell growth, comprising epstein-barr virus microrna” (Catholic University Industry Academic Cooperation Foundation, priority 2011, dated 2016):
# Key:
# Type in all cases: cell-based
# AGS cell strain [1] = assay: Cell growth test (CCK-8 assay) after transfection of BART miRNA mimics; settings: for Relative Cell Growth: relative to scrambled control (=1)
# Protocol: An AGS cell strain (Korean Cell Line Bank), which is a stomach cancer cell strain, was cultured in an RPMI1640 (Gibco) culture medium including 10% fetal bovine serum. Mature type synthesized BART miRNAs were transfected to the AGS cell strain by using G-fectin (Genolution) according to a protocol of the manufacture.
# To investigate the effect of individual EBV BART miRNAs on the AGS cell strain, the synthesized miRNAs were transfected to the AGS cell strain and, after 72 hours, cells were counted by CCK-8 assay.
# Immediately after the AGS cell strain, which is an EBV-negative cell strain, was divided into 96-well plate having 1×10^3 cells/well, a synthesized miRNA (10 nM) was transfected by using G-fectin. After the transfection, according to the experimental objective, the cells were cultured at 37° C. in an incubator, and then CCK-8 was divided among the wells by allocating 10 μl of CCK-8 to each well and the resulting mixture was cultured in an incubator at 37° C. for two hours. Then, the light absorbance was measured with an ELISA measuring instrument.
# By the method described in Example 3, miR-BART5-5p mimic or miR-BART15-3p mimic (10 nM) were transfected to the AGS cell strain, and the effect thereof on cell growth was investigated over time.
# miR-BART5-5p, miR-BART15-3p, and miR-BART20-3p were transfected to the AGS cell strain (1×10^3 cells/well) in a concentration of 1, 3, 10, and 30 nM, and the effect on cell growth was investigated. Immediately after the AGS cell strain was divided into a 96-well plate such that 1×10^3 AGS cells were allocated to each well, a synthesized miRNA was transfected by using G-fectin. Seventy two hours after the transfection, CCK-8 was divided among the wells by allocating 10 μl of CCK-8 to each well, and the resulting mixture was cultured at 37° C. in an incubator for two hours.
# AGS cell strain [2] = assay: Effect on cell cycle (propidium iodide staining, FACS, sub G1); settings: for Relative Sub G1: mimic 10 nM, 10 uM 5-FU 24 h after transfection, then 48 hours, relative to scrambled control (=1)
# Protocol: The AGS cells were divided into a 96-well plate such that 2×10^5 AGS cells were allocated to each well, and synthesized miRNAs (10 nM) were transfected and cultured at 37° C. in an incubator. Twenty four hours after the transfection, 10 uM of 5-FU, which is an anti-cancer agent, was treated in one case or not treated in another case, and then the resulting mixture was cultured in an incubator at 37° C. for 48 hours. The cells were detached by using Trypsin-EDTA and washed with PBS two times.
# Immediately after the AGS cell strains, which are EBV-negative cell strains, were divided into a 6-well plate such that 2×10^5 AGS cells were allocated to each well, a synthesized miRNA (10 nM) was transfected by using G-fectin and cultured at 37° C. in an incubator. Twenty four hours after the transfection, 10 uM of 5-FU was treated and the resulting mixture was cultured at 37° C. in an incubator for 48 hours. The cells were detached by using Trypsin-EDTA and washed with PBS two times. Afterwards, DNA was stained by propidium iodide staining and the ratio of cells where cell cycle was changed was investigated by FACS.
# AGS cell strain [3] = assay: Measurement of apoptosis (Annexin V staining, FACS); settings: for Relative Apoptotic cell: mimic 10 nM, 10 uM 5-FU 24 h after transfection, then 48 hours, Annexin V, relative to scrambled control (=1), n=9; for effect on cell growth and apoptosis (summary statement): mimics transfected to AGS, tumor cell strain not infected with EBV
# Protocol: Immediately after the AGS cell strain, which is an EBV-negative cell strain, was divided was divided into a 6-well plate such that 2×10^5 AGS cells were allocated to each well, a synthesized miRNA (10 nM) was transfected by using G-fectin and the resulting mixture was cultured at 37 t in an incubatorTwenty four hours after the transfection, 10 uM of 5-FU was treated and the resulting mixture was cultured in an incubator at 37° C. for 48 hours. The cells were detached by using Trypsin-EDTA and washed with PBS two times. Afterwards, the cells were treated with a PE Annexin V Apoptosis Detection Kit and the changed ratio of apoptotic cell was investigated by FACS (FIG. 7).
# Immediately after the AGS cell strain, which is an EBV-negative cell strain, is divided into a 6-well plate such that 2×10^5 AGS cells were allocated to each well, a synthesized miRNA (10 nM) was transfected by using G-fectin and the resulting mixture was cultured at 37° C. Twenty four hours after the transfection, 10 uM of 5-FU, which is an anti-cancer agent, was treated and the resulting mixture was cultured in an incubator at 37° C. for 48 hours. The cells were detached by using Trypsin-EDTA and washed with PBS two times. Afterwards, the cells were treated with a PE Annexin V Apoptosis Detection Kit and the ratio of cells where apoptosis took place was measured by FACS.
# [4] = mimic 10 nM, 72 hours after transfection, n=9
# [5] = AGS, mimic 10 nM in combination with 10 uM 5-FU
Substance,Relative Cell Growth (AGS cell strain [1]; [4]),Relative Sub G1 (AGS cell strain [2]),Relative Apoptotic cell (AGS cell strain [3]; AGS),effect on cell growth and apoptosis (summary statement) (AGS cell strain [3]),further results
"BART1-3p: EBV BART miRNA mimic, double stranded RNA; sense SEQ NO: 11, antisense SEQ NO: 12 (sense UAGCACCGCUAUCCACUAUGUC; antisense GACAUAGUGGAUAGCGGUGCUA; chemistry not given here)",1.201,0.7947,0.9231,–,–
"BART1-5p: EBV BART miRNA mimic, double stranded RNA; sense SEQ NO: 9, antisense SEQ NO: 10 (sense UCUUAGUGGAAGUGACGUGCUGUG; antisense CACAGCACGUCACUUCCACUAAGA; chemistry not given here)",1.141,0.8028,1.08,inhibit cell growth and promote apoptosis,"Relative Apoptotic cell (AGS cell strain [3]; AGS, listed as 1-5p): significantly higher"
"BART2-3p: EBV BART miRNA mimic, double stranded RNA; sense SEQ NO: 87, antisense SEQ NO: 88 (sense AAGGAGCGAUUUGGAGAAAAUAAA; antisense UUUAUUUUCUCCAAAUCGCUCCUU; chemistry not given here)",1.433,1.178,1.062,inhibit cell growth and promote apoptosis,"Relative Apoptotic cell (AGS cell strain [3]; AGS, listed as 2-3p): significantly higher"
"BART2-5p: EBV BART miRNA mimic, double stranded RNA; sense SEQ NO: 85, antisense SEQ NO: 86 (sense UAUUUUCUGCAUUCGCCCUUGC; antisense GCAAGGGCGAAUGCAGAAAAUA; chemistry not given here)",1.085,1.092,1.082,–,–
"BART3-3p: EBV BART miRNA mimic, double stranded RNA; sense SEQ NO: 3, antisense SEQ NO: 4 (sense CGCACCACUAGUCACCAGGUGU; antisense ACACCUGGUGACUAGUGGUGCG; chemistry not given here)",1.135,0.9648,1.111,–,–
"BART3-5p: EBV BART miRNA mimic, double stranded RNA; sense SEQ NO: 1, antisense SEQ NO: 2 (sense ACCUAGUGUUAGUGUUGUGCU; antisense AGCACAACACUAACACUAGGU; chemistry not given here)",1.272,0.8224,1.016,–,–
"BART4-3p: EBV BART miRNA mimic, double stranded RNA; sense SEQ NO: 7, antisense SEQ NO: 8 (sense CACAUCACGUAGGCACCAGGUGU; antisense ACACCUGGUGCCUACGUGAUGUG; chemistry not given here)",1.065,0.755,1.133,inhibit cell growth and promote apoptosis,"Relative Apoptotic cell (AGS cell strain [3]; AGS, listed as 4-3p): significantly higher"
"BART4-5p: EBV BART miRNA mimic, double stranded RNA; sense SEQ NO: 5, antisense SEQ NO: 6 (sense GACCUGAUGCUGCUGGUGUGCU; antisense AGCACACCAGCAGCAUCAGGUC; chemistry not given here)",0.9348,1.236,1.204,inhibit cell growth and promote apoptosis,"Relative Sub G1 (AGS cell strain [2]; listed as miR-BART4-5p): increased; Relative Apoptotic cell (AGS cell strain [3]; AGS, listed as miR-BART4-5p): significantly higher"
"BART5-3p: EBV BART miRNA mimic, double stranded RNA; sense SEQ NO: 19, antisense SEQ NO: 20 (sense GUGGGCCGCUGUUCACCU; antisense AGGUGAACAGCGGCCCAC; chemistry not given here)",0.9583,0.9486,1.17,inhibit cell growth and promote apoptosis,–
"BART5-5p: EBV BART miRNA mimic, double stranded RNA; sense SEQ NO: 17, antisense SEQ NO: 18 (sense CAAGGUGAAUAUAGCUGCCCAUCG; antisense CGAUGGGCAGCUAUAUUCACCUUG; chemistry not given here)",0.5231,2.111,1.325,inhibit cell growth and promote apoptosis,"cell growth depending on mimic concentration (onset of inhibition) (AGS cell strain [1]; 1, 3, 10 and 30 nM, 72 hours after transfection): a tendency to inhibit cell growth beginning at 10 nM; Relative Cell Growth (AGS cell strain [1]; mimic 10 nM, 72 hours after transfection, n=9, listed as miR-BART5-5p): inhibited cell growth; cell growth over time (AGS cell strain [1]; mimic 10 nM, depending on treatment time): greatly decreased cell growth; ratio of sub G1 after the 5-FU treatment (AGS cell strain [2]; mimic 10 nM plus 10 uM 5-FU (Example 6)): greatly increased; Relative Sub G1 (AGS cell strain [2]; listed as 5-5p): increased; ratio of early apoptotic cell (AGS cell strain [3]; [5]): increased; ratio of late apoptotic cell (AGS cell strain [3]; [5]): increased; degree of apoptosis, combination with 5-FU versus sum of single treatments (AGS cell strain [3]; AGS, mimic 10 nM plus 10 uM 5-FU): synergetic effect; ratio of early apoptotic cell (AGS cell strain [3]; AGS, mimic 10 nM treated alone): increased; ratio of late apoptotic cell (AGS cell strain [3]; AGS, mimic 10 nM treated alone): increased; Relative Apoptotic cell (AGS cell strain [3]; AGS, listed as 5-5p): significantly higher"
"BART6-3p: EBV BART miRNA mimic, double stranded RNA; sense SEQ NO: 31, antisense SEQ NO: 32 (sense CGGGGAUCGGACUAGCCUUAGA; antisense UCUAAGGCUAGUCCGAUCCCCG; chemistry not given here)",0.9101,1.24,1.018,–,Relative Sub G1 (AGS cell strain [2]; listed as 6-3p): increased
"BART6-5p: EBV BART miRNA mimic, double stranded RNA; sense SEQ NO: 29, antisense SEQ NO: 30 (sense UAAGGUUGGUCCAAUCCAUAGG; antisense CCUAUGGAUUGGACCAACCUUA; chemistry not given here)",0.881,1.023,1.117,–,–
